Here are results for six compounds from ChEMBL document CHEMBL3045490, “N-Thiophenylethyl-2,2-dichloro-1-cyclopropanecarboxamides: modification of the amide part of carpropamid and examination of fungicidal activity” (2009).

Type in all cases: functional
Test [1] has as its system Pseudoperonospora cubensis. The test can be described thus: Antifungal activity against Pseudoperonospora cubensis in cucumber assessed as lesion area of the disease at 500 ug/ml after 7 days.
The subject of another test is Puccinia recondita. In words: Antifungal activity against Puccinia recondita in wheat plant assessed as lesion area of the disease at 500 ug/ml after 10 days.
For another test, the system named is Blumeria graminis. The test can be described thus: Antifungal activity against Blumeria graminis in wheat plant assessed as lesion area of the disease at 500 ug/ml after 10 days.
The test system of the next test is Botrytis cinerea. In words: Antifungal activity against Botryotinia fuckeliana in cucumber cotyledon assessed as lesion area of the disease at 500 ug/ml after 4 days.

As to `CCC1(C(=O)NCCc2cc(Cl)c(Cl)s2)C(C)C1(Cl)Cl` (centres undefined), the Activity entry (in test [1]; with Puccinia recondita; in the test on Blumeria graminis; in the test on Botrytis cinerea) was “>=80%” in each case.

`CCC1(C(=O)NC(C)Cc2ccc(Cl)cc2)C(C)C1(Cl)Cl` (centres undefined): the Activity entry (in test [1]; in the test on Puccinia recondita; in the test with Blumeria graminis; in the test with Botrytis cinerea) was “>=80%” each time.

Consider `CC(NC(=O)C1(C2CCCC2)CC1(Cl)Cl)c1ccc(Cl)cc1` (centres undefined), for which the Activity result (in test [1]; in the test with Puccinia recondita; in the test on Blumeria graminis; with Botrytis cinerea) was “>=80%” throughout.

In the case of `CCC1(C(=O)NCCc2cc(Br)cs2)C(C)C1(Cl)Cl` (centres undefined), the Activity in test [1] is given as 0%; in the test on Puccinia recondita, “>=80%”; with Blumeria graminis it was “>=80%”; in the test on Botrytis cinerea, under 40%.

In the case of `CCC1(C(=O)Nc2ccc(Cl)cc2)C(C)C1(Cl)Cl` (centres undefined), the Activity entry (in test [1]; with Puccinia recondita; in the test on Blumeria graminis; with Botrytis cinerea) was “>=80%” throughout.

Regarding `CCC1(C(=O)NCCc2ccc(Cl)s2)C(C)C1(Cl)Cl` (centres undefined), the Activity entry in test [1] was “>=80%”; with Puccinia recondita, 1.5%; in the test on Blumeria graminis, “>=80%”; in the test with Botrytis cinerea, “>=80%”.
